Data taken from ChEMBL document CHEMBL4507267 (2021).

What was measured:
[1] = target: Activin receptor type-2B (Homo sapiens) (UniProt Q13705); details: Compound concentration 1000.0 nM
[2] = target: Myosin-IIIa (Homo sapiens) (UniProt Q8NEV4); details: Compound concentration 1000.0 nM
[3] = target: Ribosomal protein S6 kinase alpha-6 (Homo sapiens) (UniProt Q9UK32); details: Compound concentration 1000.0 nM
[4] = target: Homeodomain-interacting protein kinase 4 (Homo sapiens) (UniProt Q8NE63); details: Compound concentration 1000.0 nM
[5] = target: Serine/threonine-protein kinase SBK1 (Homo sapiens) (UniProt Q52WX2); details: Compound concentration 1000.0 nM
[6] = target: ALK tyrosine kinase receptor (Homo sapiens) (UniProt Q9UM73); details: Compound concentration 1000.0 nM
[7] = target: Casein kinase I isoform alpha (Homo sapiens) (UniProt P48729); details: Compound concentration 1000.0 nM
[8] = target: Mitogen-activated protein kinase kinase kinase 6 (Homo sapiens) (UniProt O95382); details: Compound concentration 1000.0 nM
[9] = target: Myosin light chain kinase, smooth muscle (Homo sapiens) (UniProt Q15746); details: Compound concentration 1000.0 nM
[10] = target: Cyclin-dependent kinase 2 (Homo sapiens) (UniProt P24941); details: Compound concentration 1000.0 nM
[11] = target: Calcium/calmodulin-dependent protein kinase type II subunit beta (Homo sapiens) (UniProt Q13554); details: Compound concentration 1000.0 nM
[12] = target: Cyclin-dependent kinase-like 1 (Homo sapiens) (UniProt Q00532); details: Compound concentration 1000.0 nM
[13] = target: Serine/threonine-protein kinase 32C (Homo sapiens) (UniProt Q86UX6); details: Compound concentration 1000.0 nM
[14] = target: Mitogen-activated protein kinase 7 (Homo sapiens) (UniProt Q13164); details: Compound concentration 1000.0 nM
[15] = target: Phosphatidylinositol 5-phosphate 4-kinase type-2 gamma (Homo sapiens) (UniProt Q8TBX8); details: Compound concentration 1000.0 nM
[16] = system: Receptor-type tyrosine-protein kinase FLT3 (Homo sapiens), P36888 [K663Q]; details: Compound concentration 1000.0 nM
[17] = target: Serine/threonine-protein kinase pim-3 (Homo sapiens) (UniProt Q86V86); details: Compound concentration 1000.0 nM
[18] = target: Ribosomal protein S6 kinase alpha-1 (Homo sapiens) (UniProt Q15418); details: Compound concentration 1000.0 nM
[19] = target: Serine/threonine-protein kinase BRSK2 (Homo sapiens) (UniProt Q8IWQ3); details: Compound concentration 1000.0 nM
[20] = target: Myosin light chain kinase (Homo sapiens) (UniProt Q32MK0); details: Compound concentration 1000.0 nM
[21] = target: Platelet-derived growth factor receptor beta (Homo sapiens) (UniProt P09619); details: Compound concentration 1000.0 nM
[22] = target: 5-hydroxytryptamine receptor 2A (Homo sapiens) (UniProt P28223); details: Compound concentration 10.0 uM
[23] = target: Activated CDC42 kinase 1 (Homo sapiens) (UniProt Q07912); details: Compound concentration 1000.0 nM
[24] = target: Serine/threonine-protein kinase MARK1 (Homo sapiens) (UniProt Q9P0L2); details: Compound concentration 1000.0 nM
[25] = system: eIF-2-alpha kinase GCN2 (Homo sapiens), Q9P2K8 [S808G]; details: Compound concentration 1000.0 nM
[26] = target: Serine/threonine-protein kinase 10 (Homo sapiens) (UniProt O94804); details: Compound concentration 1000.0 nM
[27] = system: Epidermal growth factor receptor (Homo sapiens), P00533 [UNDEFINED MUTATION]; details: Compound concentration 1000.0 nM
[28] = target: D(2) dopamine receptor (Homo sapiens) (UniProt P14416); details: Compound concentration 10.0 uM
[29] = target: Serine/threonine-protein kinase tousled-like 1 (Homo sapiens) (UniProt Q9UKI8); details: Compound concentration 1000.0 nM
[30] = target: Tyrosine-protein kinase ITK/TSK (Homo sapiens) (UniProt Q08881); details: Compound concentration 1000.0 nM
[31] = target: Serine/threonine-protein kinase ICK (Homo sapiens) (UniProt Q9UPZ9); details: Compound concentration 1000.0 nM
[32] = target: Casein kinase II subunit alpha' (Homo sapiens) (UniProt P19784); details: Compound concentration 1000.0 nM
[33] = target: Mitogen-activated protein kinase kinase kinase kinase 1 (Homo sapiens) (UniProt Q92918); details: Compound concentration 1000.0 nM
[34] = target: Death-associated protein kinase 3 (Homo sapiens) (UniProt O43293); details: Compound concentration 1000.0 nM
[35] = target: Serine/threonine-protein kinase SIK2 (Homo sapiens) (UniProt Q9H0K1); details: Compound concentration 1000.0 nM
[36] = target: Serine/threonine-protein kinase pim-2 (Homo sapiens) (UniProt Q9P1W9); details: Compound concentration 1000.0 nM
[37] = target: TRAF2 and NCK-interacting protein kinase (Homo sapiens) (UniProt Q9UKE5); details: Compound concentration 1000.0 nM
[38] = target: Tyrosine-protein kinase ABL1 (Homo sapiens) (UniProt P00519); details: Compound concentration 1000.0 nM
[39] = target: Serine/threonine-protein kinase 38-like (Homo sapiens) (UniProt Q9Y2H1); details: Compound concentration 1000.0 nM
[40] = target: D(1B) dopamine receptor (Homo sapiens) (UniProt P21918); details: Compound concentration 10.0 uM
[41] = target: RAC-alpha serine/threonine-protein kinase (Homo sapiens) (UniProt P31749); details: Compound concentration 1000.0 nM
[42] = target: Serine/threonine-protein kinase/endoribonuclease IRE1 (Homo sapiens) (UniProt O75460); details: Compound concentration 1000.0 nM
[43] = target: Mitogen-activated protein kinase kinase kinase 9 (Homo sapiens) (UniProt P80192); details: Compound concentration 1000.0 nM
[44] = target: 5-hydroxytryptamine receptor 1E (Homo sapiens) (UniProt P28566); details: Compound concentration 10.0 uM
[45] = target: Serine/threonine-protein kinase 32A (Homo sapiens) (UniProt Q8WU08); details: Compound concentration 1000.0 nM

Chain of D(2) dopamine receptor (Homo sapiens) (P14416 whole entry): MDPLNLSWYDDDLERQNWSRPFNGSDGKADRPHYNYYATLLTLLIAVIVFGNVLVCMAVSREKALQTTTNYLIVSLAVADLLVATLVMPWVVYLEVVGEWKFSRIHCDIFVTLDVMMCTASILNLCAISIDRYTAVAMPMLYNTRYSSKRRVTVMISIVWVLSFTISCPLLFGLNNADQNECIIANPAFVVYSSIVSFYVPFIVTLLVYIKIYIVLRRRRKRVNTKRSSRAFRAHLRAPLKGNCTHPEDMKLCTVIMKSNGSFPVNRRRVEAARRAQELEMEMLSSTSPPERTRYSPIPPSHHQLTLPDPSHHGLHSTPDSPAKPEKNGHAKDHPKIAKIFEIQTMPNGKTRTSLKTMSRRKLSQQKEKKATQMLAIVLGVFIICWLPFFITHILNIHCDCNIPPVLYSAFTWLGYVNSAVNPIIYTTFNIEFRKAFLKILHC
Chain of Tyrosine-protein kinase ITK/TSK (Homo sapiens) (Q08881 whole entry): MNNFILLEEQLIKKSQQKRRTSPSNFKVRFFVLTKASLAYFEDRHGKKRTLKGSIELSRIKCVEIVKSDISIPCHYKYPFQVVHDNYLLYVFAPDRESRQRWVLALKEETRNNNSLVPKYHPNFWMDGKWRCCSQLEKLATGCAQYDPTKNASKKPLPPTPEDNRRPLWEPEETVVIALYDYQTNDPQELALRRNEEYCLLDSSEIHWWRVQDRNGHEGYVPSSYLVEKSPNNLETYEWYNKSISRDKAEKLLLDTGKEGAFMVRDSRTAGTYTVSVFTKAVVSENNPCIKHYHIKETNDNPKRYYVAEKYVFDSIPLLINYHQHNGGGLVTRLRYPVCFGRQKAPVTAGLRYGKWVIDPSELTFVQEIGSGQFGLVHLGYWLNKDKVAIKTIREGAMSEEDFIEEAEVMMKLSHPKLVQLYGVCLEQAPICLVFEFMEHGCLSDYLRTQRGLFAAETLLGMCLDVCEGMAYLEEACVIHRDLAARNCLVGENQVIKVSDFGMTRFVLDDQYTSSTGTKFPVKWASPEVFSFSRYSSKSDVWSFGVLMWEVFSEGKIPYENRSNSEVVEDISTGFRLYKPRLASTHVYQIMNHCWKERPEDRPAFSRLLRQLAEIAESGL
Chain of Mitogen-activated protein kinase kinase kinase 9 (Homo sapiens) (P80192 whole entry, looked up): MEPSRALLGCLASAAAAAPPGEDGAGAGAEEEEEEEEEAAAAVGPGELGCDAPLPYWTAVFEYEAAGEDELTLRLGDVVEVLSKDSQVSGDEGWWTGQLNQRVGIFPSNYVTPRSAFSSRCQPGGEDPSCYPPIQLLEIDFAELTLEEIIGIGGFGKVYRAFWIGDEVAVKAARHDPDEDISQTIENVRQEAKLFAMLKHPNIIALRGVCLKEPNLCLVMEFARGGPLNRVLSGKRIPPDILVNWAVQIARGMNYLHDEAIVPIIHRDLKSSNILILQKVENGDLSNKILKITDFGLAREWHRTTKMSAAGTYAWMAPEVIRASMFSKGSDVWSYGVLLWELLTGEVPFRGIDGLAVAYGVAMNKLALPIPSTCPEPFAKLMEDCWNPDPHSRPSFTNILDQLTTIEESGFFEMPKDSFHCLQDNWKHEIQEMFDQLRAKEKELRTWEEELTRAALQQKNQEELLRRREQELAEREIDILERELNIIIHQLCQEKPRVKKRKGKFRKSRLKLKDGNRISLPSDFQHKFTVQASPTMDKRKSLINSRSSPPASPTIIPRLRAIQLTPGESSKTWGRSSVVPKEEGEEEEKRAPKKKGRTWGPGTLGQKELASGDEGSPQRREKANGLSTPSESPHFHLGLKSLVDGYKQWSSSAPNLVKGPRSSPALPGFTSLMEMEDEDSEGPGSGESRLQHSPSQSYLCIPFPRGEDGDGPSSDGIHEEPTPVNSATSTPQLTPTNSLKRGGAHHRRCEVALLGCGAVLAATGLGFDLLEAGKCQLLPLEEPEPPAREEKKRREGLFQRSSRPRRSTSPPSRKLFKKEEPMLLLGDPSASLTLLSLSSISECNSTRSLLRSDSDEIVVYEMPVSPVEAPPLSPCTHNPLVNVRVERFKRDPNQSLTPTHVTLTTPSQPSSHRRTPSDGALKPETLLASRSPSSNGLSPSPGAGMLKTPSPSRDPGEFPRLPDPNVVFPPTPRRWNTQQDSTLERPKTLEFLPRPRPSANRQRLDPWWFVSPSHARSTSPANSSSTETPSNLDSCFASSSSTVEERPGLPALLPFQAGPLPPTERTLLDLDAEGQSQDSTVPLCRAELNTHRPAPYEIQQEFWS
Chain of Serine/threonine-protein kinase pim-2 (Homo sapiens) (Q9P1W9 whole entry, looked up): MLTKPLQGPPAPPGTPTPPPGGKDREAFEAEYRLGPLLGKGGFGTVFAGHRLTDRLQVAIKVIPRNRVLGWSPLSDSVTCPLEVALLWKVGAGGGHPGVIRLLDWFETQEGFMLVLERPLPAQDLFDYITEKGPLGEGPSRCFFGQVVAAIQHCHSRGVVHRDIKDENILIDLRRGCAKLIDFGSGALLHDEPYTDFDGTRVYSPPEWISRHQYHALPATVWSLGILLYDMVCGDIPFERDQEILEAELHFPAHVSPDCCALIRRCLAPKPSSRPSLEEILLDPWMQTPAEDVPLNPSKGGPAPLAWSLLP
Chain of Serine/threonine-protein kinase SIK2 (Homo sapiens) (Q9H0K1 whole entry, looked up): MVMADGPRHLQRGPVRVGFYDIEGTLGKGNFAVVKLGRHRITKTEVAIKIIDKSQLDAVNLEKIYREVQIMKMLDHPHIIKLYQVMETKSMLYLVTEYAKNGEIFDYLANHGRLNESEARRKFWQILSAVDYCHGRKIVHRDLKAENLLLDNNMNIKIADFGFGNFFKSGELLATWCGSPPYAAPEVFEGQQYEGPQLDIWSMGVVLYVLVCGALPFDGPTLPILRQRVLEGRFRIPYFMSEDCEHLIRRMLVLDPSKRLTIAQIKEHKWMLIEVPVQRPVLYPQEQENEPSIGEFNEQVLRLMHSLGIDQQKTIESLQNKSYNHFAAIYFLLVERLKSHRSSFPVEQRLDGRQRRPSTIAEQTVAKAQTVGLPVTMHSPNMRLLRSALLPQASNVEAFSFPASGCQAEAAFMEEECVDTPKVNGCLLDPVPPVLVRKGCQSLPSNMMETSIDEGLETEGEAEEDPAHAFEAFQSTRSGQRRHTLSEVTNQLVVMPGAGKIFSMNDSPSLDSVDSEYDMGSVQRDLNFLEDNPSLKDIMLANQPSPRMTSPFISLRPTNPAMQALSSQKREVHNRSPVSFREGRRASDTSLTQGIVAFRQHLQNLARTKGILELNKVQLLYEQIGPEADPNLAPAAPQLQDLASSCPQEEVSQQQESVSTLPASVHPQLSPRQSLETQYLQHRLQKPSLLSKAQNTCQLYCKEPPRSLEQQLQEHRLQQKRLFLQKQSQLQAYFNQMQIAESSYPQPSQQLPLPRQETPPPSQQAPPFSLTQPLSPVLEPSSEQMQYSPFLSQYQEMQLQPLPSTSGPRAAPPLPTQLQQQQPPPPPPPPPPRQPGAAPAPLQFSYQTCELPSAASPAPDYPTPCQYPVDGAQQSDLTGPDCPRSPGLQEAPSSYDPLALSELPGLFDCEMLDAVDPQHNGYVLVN
Chain of Serine/threonine-protein kinase/endoribonuclease IRE1 (Homo sapiens) (O75460 19-977 limits assumed): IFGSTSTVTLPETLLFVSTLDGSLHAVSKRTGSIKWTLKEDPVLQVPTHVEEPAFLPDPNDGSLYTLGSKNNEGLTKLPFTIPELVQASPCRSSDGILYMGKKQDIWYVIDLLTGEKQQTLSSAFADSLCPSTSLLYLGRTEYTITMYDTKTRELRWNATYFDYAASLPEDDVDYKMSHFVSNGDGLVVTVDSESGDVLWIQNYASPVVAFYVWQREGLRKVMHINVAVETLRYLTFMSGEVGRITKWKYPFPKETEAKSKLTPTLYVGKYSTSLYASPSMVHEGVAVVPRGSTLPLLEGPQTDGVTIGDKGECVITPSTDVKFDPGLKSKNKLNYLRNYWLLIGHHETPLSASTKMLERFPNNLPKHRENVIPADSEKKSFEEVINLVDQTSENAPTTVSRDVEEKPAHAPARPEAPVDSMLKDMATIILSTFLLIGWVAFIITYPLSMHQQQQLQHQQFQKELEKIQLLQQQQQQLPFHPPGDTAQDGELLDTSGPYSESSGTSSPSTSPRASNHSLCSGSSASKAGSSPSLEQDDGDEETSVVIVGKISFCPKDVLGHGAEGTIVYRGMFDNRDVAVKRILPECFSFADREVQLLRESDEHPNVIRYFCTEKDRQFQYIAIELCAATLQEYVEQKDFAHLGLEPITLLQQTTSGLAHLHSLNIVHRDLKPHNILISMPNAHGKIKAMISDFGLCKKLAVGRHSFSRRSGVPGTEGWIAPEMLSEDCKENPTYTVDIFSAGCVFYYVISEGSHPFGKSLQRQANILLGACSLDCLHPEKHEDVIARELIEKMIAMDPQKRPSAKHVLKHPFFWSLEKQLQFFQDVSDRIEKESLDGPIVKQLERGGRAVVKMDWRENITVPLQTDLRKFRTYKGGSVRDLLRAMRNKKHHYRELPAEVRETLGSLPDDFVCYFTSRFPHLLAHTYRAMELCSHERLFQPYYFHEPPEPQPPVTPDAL
Chain of Serine/threonine-protein kinase 32C (Homo sapiens) (Q86UX6 whole entry): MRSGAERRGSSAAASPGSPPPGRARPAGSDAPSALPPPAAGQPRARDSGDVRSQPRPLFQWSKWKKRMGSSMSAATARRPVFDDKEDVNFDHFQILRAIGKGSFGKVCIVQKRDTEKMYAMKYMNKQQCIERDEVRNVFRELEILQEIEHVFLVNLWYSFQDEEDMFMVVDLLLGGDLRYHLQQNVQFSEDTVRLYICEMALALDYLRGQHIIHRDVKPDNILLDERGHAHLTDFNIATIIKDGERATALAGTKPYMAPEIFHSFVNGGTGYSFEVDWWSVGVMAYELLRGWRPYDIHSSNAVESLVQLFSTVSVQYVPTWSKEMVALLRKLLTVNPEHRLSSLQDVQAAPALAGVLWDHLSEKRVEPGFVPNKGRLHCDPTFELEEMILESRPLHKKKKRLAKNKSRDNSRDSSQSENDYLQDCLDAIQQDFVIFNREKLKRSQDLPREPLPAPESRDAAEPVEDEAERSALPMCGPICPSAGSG

Cc1c(NC(=O)c2cc(C(N)=O)nc3cc(F)ccc23)c(C(F)(F)F)nn1Cc1ccc(C(C)(C)C)cc1 [BAY-588]
inactive: residual activity [1] 100% | residual activity [2] 100% | residual activity [3] 100% | residual activity [4] 88% | residual activity [5] 100% | residual activity [6] 96% | residual activity [7] 94% | residual activity [8] 100% | residual activity [9] 97% | residual activity [10] 88% | residual activity [11] 98% | residual activity [12] 100% | residual activity [13] 100% | residual activity [14] 100% | residual activity [15] 76% | residual activity [16] 100% | residual activity [17] 100% | residual activity [18] 100% | residual activity [19] 100% | residual activity [20] 100% | residual activity [21] 76% | inhibition [22] -0.878% | residual activity [23] 100% | residual activity [24] 100% | residual activity [25] 56% | residual activity [26] 88% | residual activity [27] 100% | inhibition [28] 18% | residual activity [29] 100% | residual activity [30] 95% | residual activity [31] 61% | residual activity [32] 100% | residual activity [33] 100% | residual activity [34] 76% | residual activity [35] 100% | residual activity [36] 100% | residual activity [37] 98% | residual activity [38] 96% | residual activity [39] 89% | inhibition [40] 2.96% | residual activity [41] 93% | residual activity [42] 89% | residual activity [43] 100% | inhibition [44] 7.98% | residual activity [45] 100%

Cc1c(NC(=O)c2cc(C(N)=O)nc3cc(F)ccc23)c(C(F)(F)F)nn1Cc1ccc(C#N)cc1 [BAY-876]
inactive: residual activity [1] 93% | residual activity [2] 91% | residual activity [3] 66% | residual activity [4] 100% | residual activity [5] 75% | residual activity [6] 87% | residual activity [7] 72% | residual activity [8] 75% | residual activity [9] 65% | residual activity [10] 91% | residual activity [11] 90% | residual activity [12] 82% | residual activity [13] 69% | residual activity [14] 95% | residual activity [15] 100% | residual activity [16] 93% | residual activity [17] 100% | residual activity [18] 100% | residual activity [19] 100% | residual activity [20] 79% | residual activity [21] 87% | inhibition [22] 14.3% | residual activity [23] 71% | residual activity [24] 100% | residual activity [25] 100% | residual activity [26] 79% | residual activity [27] 91% | inhibition [28] 8.73% | residual activity [29] 79% | residual activity [30] 78% | residual activity [31] 100% | residual activity [32] 100% | residual activity [33] 100% | residual activity [34] 89% | residual activity [35] 100% | residual activity [36] 94% | residual activity [37] 92% | residual activity [38] 84% | residual activity [39] 100% | inhibition [40] -0.829% | residual activity [41] 91% | residual activity [42] 78% | residual activity [43] 100% | inhibition [44] 4% | residual activity [45] 89%
